Data on 1 molecule can be found in EPA's ToxValDB 9.5 (doi:10.2903/j.efsa.2009.336r).

One data set relates to Apis mellifera. As to conditions: acute; duration: 48 hours; oral; unspecified; mortality.
The next data set has as its system Avena sativa. The following applies: not reported; no effects.
A further data set relates to Bibionidae. As to conditions: chronic/long-term; duration: 28 days; other.
Another data set deals with Canidae. The following applies: chronic; duration: 52 weeks; oral; Dog Other; organ weight.
The subject of another data set is Colinus virginianus. As to conditions: acute, oral, mortality.
In a further data set the test system is Daphnia magna. The following applies: chronic/long-term; duration: 21 days; reproduction.
A further data set concerns Lepomis macrochirus. The following applies: acute; duration: 96 hours; mortality.
The next data set deals with Oncorhynchus mykiss. The following applies: chronic/long-term; duration: 95 days.
The next data set has as its system Tagia sp. As to conditions: acute; duration: 14 days; mortality.

For orientation: NOAEL means the highest dose or exposure tested at which no adverse effect was seen.

On to `CC(COc1ccc(Oc2ccccc2)cc1)Oc1ccccn1` (centres undefined) [Pyriproxyfen], for which the LD50 is over 1910 mg/kg in the data set with Anas platyrhynchos (acute, oral, unspecified, mortality); over 74 µg/piece in the data set with Apis mellifera; over 1910 mg/kg with Colinus virginianus; over 5000 mg/kg with Rattus norvegicus (acute, oral, mortality). Besides, the NOEC in the data set on Anas platyrhynchos (reproductive) was determined as 70.2 mg/kg-day; in the data set with Bibionidae, 0.01 mg/L; with Daphnia magna, 1.5e-05 mg/L; in the data set on Oncorhynchus mykiss it was 0.0043 mg/L. The same molecule returned an LEL in the data set on Avena sativa of 8000 g/ha. In addition, the no-observed-adverse-effect level (NOAEL) in the data set on Canidae is 10 mg/kg-day; in the data set with Rattus norvegicus (reproduction developmental, organ weight) it was 13.3 mg/kg-day. Moreover, the LC50 in the data set on Colinus virginianus (diet) is over 863 mg/kg-day; in the data set with Lepomis macrochirus it was over 0.27 µg/mL; in the data set on Tagia sp., over 1000 mg/kg.
